Values of other authors in patent US5849729A, “Use of hydrolyzed cocoa butter for percutaneous absorption” (Hershey Foods Corporation, priority 1995, dated 1998).
Where two headings read alike, the source gives them in different places.

Settings: cited from earlier work
[1] = in vivo, topical or ocular, 120 h

SMILES | Absorption Rate 0-12 (in vivo) | Absorption Rate 12-24 (in vivo) | Absorption Rate 24-48 (in vivo) | Absorption Rate 48-72 (in vivo) | Absorption Rate 72-96 (in vivo) | Absorption Rate 96-120 (in vivo) | Total Absorption (T of above) (topical, 0-120 hrs) | Absorption Rate 0-12 (topical, 0-12 hrs) | Absorption Rate 12-24 (topical, 12-24 hrs) | Absorption Rate 24-48 (topical, 24-48 hrs) | Absorption Rate 48-72 (topical, 48-72 hrs) | Absorption Rate 72-96 (topical, 72-96 hrs) | Absorption Rate 96-120 (topical, 96-120 hrs) | absorption through the skin of closely related corticosteroid compounds (published literature, topical) | Total Absorption (T of above) [1] | absorption through the skin of closely related corticosteroid compounds (in vivo, topical or ocular)
C[C@]12CCC(=O)C=C1CC[C@@H]1[C@@H]2CC[C@@]2(C)[C@H]1CC[C@]2(O)C(=O)CO [17-OII DOC] | .041 % hr | .101 % hr | .084 % hr | .076 % hr | .062 % hr | .065 % hr | 8.41 % of the dose |  |  |  |  |  |  |  |  | 
CC(=O)[C@@]1(O)CC[C@H]2[C@@H]3CCC4=CC(=O)CC[C@]4(C)[C@H]3CC[C@@]21C [17-OII Progesterone] |  |  |  |  |  |  | 14.76 % of the dose |  |  |  |  |  |  |  |  | 
C[C@]12CCC(=O)C=C1CC[C@@H]1[C@@H]2CC[C@]2(C)C(=O)CC[C@@H]12 [Androstenedione] |  |  |  |  |  |  | 13.47 % of the dose | .183 % hr | .334 % hr | .155 % hr | .076 % hr | .043 % hr | .028 % hr |  |  | 
C[C@]12C[C@H](O)[C@H]3[C@@H](CCC4=CC(=O)CC[C@@]43C)[C@@H]1CC[C@@H]2C(=O)CO [Corticosterone] |  |  |  |  |  |  | 8.78 % of the dose | .013 % hr | .065 % hr | .139 % hr | .070 % hr | .050 % hr | .039 % hr |  |  | 
C[C@]12CCC(=O)C=C1CC[C@@H]1[C@@H]2C(=O)C[C@@]2(C)[C@H]1CC[C@]2(O)C(=O)CO [Cortisone] |  |  |  |  |  |  | 3.38 % of the dose | .015 % hr | .037 % hr | .039 % hr | .036 % hr | .032 % hr | .024 % hr | 1-3 % of the dose |  | 
C[C@]12CC[C@H](O)CC1=CC[C@@H]1[C@@H]2CC[C@]2(C)C(=O)CC[C@@H]12 [Dehydroepiandrosterone] |  |  |  |  |  |  | 18.45 % of the dose | .265 % hr | .446 % hr | .249 % hr | .091 % hr | .046 % hr | .028 % hr |  |  | 
C[C@]12CC[C@H]3[C@@H](CCC4=CC(=O)CC[C@@]43C)[C@@H]1CC[C@@H]2C(=O)CO [Desoxycorticosterone] |  |  |  |  |  |  |  | .197 % hr | .313 % hr | .143 % hr | .069 % hr | .035 % hr | .020 % hr |  | 12.55 % of the dose | 
C[C@@H]1C[C@H]2[C@@H]3CCC4=CC(=O)C=C[C@]4(C)[C@@]3(F)[C@@H](O)C[C@]2(C)[C@@]1(O)C(=O)CO [Dexamethasone] |  |  |  |  |  |  | .40 % of the dose | .005 % hr | .003 % hr | .004 % hr | .003 % hr | .002 % hr | .002 % hr |  |  | 
C[C@]12CC[C@@H]3c4ccc(O)cc4CC[C@H]3[C@@H]1CC[C@@H]2O [Estradiol] | .008 % hr | .056 % hr | .099 % hr | .101 % hr | .107 % hr | .103 % hr |  |  |  |  |  |  |  |  | 10.62 % of the dose | 
CC1(C)O[C@@H]2C[C@H]3[C@@H]4C[C@H](F)C5=CC(=O)C=C[C@]5(C)[C@@]4(F)[C@@H](O)C[C@]3(C)[C@]2(C(=O)CO)O1 [Flucinoione Acetonide, fluocinolone acetonide] | .002 % hr | .011 % hr | .012 % hr | .016 % hr | .008 % hr | .005 % hr | 1.34 % of the dose |  |  |  |  |  |  | 1-3 % of the dose |  | 
CC(=O)OCC(=O)[C@@]1(O)CC[C@H]2[C@@H]3CCC4=CC(=O)CC[C@]4(C)[C@H]3[C@@H](O)C[C@@]21C [Hydrocortisone Acetate] | .020 % hr | .089 % hr | .032 % hr | .024 % hr | .015 % hr | .008 % hr |  |  |  |  |  |  |  |  | 2.55 % of the dose | 1-3 % of the dose
C[C@]12CCC(=O)C=C1CC[C@@H]1[C@@H]2[C@@H](O)C[C@@]2(C)[C@H]1CC[C@]2(O)C(=O)CO [Hydrocortisone] | .005 % hr | .023 % hr | .019 % hr | .018 % hr | .016 % hr | .010 % hr |  |  |  |  |  |  |  |  | 1.87 % of the dose | 1-3 % of the dose
CC(=O)[C@H]1CC[C@H]2[C@@H]3CCC4=CC(=O)CC[C@]4(C)[C@H]3CC[C@]12C [Progesterone] | .208 % hr | .264 % hr | .135 % hr | .045 % hr | .024 % hr | .011 % hr |  |  |  |  |  |  |  |  | 10.81 % of the dose | 
CC(=O)O[C@H]1CC[C@H]2[C@@H]3CCC4=CC(=O)CC[C@]4(C)[C@H]3CC[C@]12C [Testosterone Acetate] |  |  |  |  |  |  | 4.62 % of the dose | .103 % hr | .133 % hr | .048 % hr | .015 % hr | .007 % hr | .004 % hr |  |  | 
CCC(=O)O[C@H]1CC[C@H]2[C@@H]3CCC4=CC(=O)CC[C@]4(C)[C@H]3CC[C@]12C [Testosterone Propionate] |  |  |  |  |  |  | 3.44 % of the dose | .061 % hr | .096 % hr | .035 % hr | .015 % hr | .009 % hr | .005 % hr |  |  | 
C[C@]12CC[C@H]3[C@@H](CCC4=CC(=O)CC[C@@]43C)[C@@H]1CC[C@@H]2O [Testosterone] |  |  |  |  |  |  | 13.24 % of the dose | .147 % hr | .364 % hr | .156 % hr | .066 % hr | .036 % hr | .018 % hr |  |  | 
